Data from article PMC10215740 (Antibiotics, 2023).
Several values for one entry are separate records, joined by “and”; a condition that tells them apart may be missing. Identical values can stand only once.

Experiments:
[1] = Time with concentration above MIC targets (T>MIC, %T>MIC) in plasma and spinal tissues, microdialysis porcine model; type: in vivo, pigs (Danish Landrace breed)
Excerpt: (§1) Eight female pigs (Danish Landrace breed, weight 78–82 kg) were included. In general anaesthesia, microdialysis catheters were placed in the third cervical (C3) vertebral cancellous bone, the C3-C4 intervertebral disc, paravertebral muscle, and adjacent subcutaneous tissue. Plasma samples were obtained as a reference. Abiding by the recommendations of replacement, reduction, and refinement (the 3 Rs) when conducting animal studies, the data sampled in extrathecal spinal tissues in the present study are derived from animals where lower extremity data were reported previously. […] The dose and mode of administration used were in accordance with the clinical practice at our institution. Sampling was conducted for 8 h.
(§2) (Figure 3). The microdialysis catheters used were CMA 70 (membrane length 10 and 20 mm, molecular mass cut of 20 kDa; M Dialysis AB, Stockholm, Sweden). Through an anterolateral approach, the C2, C3, and C4 vertebrae were exposed. Using a 2 mm drill, a 25 mm drill hole was made into the C3 vertebra in which a 20 mm microdialysis catheter was placed. Afterward, with aid from a splitable microdialysis introducer (M Dialysis AB, Stockholm, Sweden), a 10 mm microdialysis catheter was positioned in the C3-C4 intervertebral disc, and a 20 mm microdialysis catheter was positioned in both the exposed paravertebral muscle and adjacent subcutaneous tissue. Correct positioning of the microdialysis catheters in the vertebra and the intervertebral disc was verified by fluoroscopy. The catheters were connected to precision pumps (CMA 107; M Dialysis AB, Stockholm, Sweden) and perfused with 0.9% NaCl solution at a flow rate of 1 μL/min.
(§3) After catheter placement, microdialysis sampling was initiated with a tissue-equilibration period of 20 min prior to the antibiotic intravenous administration. […] Microdialysates were collected at 30 min intervals for the first 4 h, and at 60 min intervals for the last 4 h, resulting in a total of 12 samples during an 8-h dosing interval. At the midpoint of each sampling interval, blood samples were collected from a central venous catheter for reference. The blood samples were stored at 5 °C for a maximum of 6 h before being centrifuged (room temperature, 3000 g, 10 min), and plasma aliquots were made. […] The recovery sample was later used for individual catheter calibration and calculation of absolute tissue concentrations. All collected samples were stored at –80 °C until the chemical analyses were performed; microdialysate analyses were performed at the Department of Forensic Medicine, Aarhus University, Denmark, and plasma aliquot analyses were performed at the Department of Clinical Biochemistry, Aarhus University Hospital, Aarhus, Denmark.
(§4) The free drug concentration of meropenem in plasma was quantified using ultra-high performance liquid chromatography (UHPLC).
(§5) The area under the concentration–time curves from zero to the last measured value (AUC0-8h) was calculated using the trapezoidal rule. The Cmax was calculated as the maximum concentration of all the recorded concentrations, and the Tmax was calculated as the time to achieve Cmax. As a measure of tissue penetration, the ratio of tissue AUC to plasma AUC (AUCtissue/AUCplasma) was calculated. A general comparison of the T>MIC and the pharmacokinetic parameters was conducted using repeated measurements of the analysis of variance (ANOVA), followed by pairwise comparisons made by linear regression. Because of a small sample size, it was necessary to conduct a correction for the degrees of freedom by the Kenward–Roger approximation method. Using the visual diagnosis of residuals, fitted values and estimates of random-effects model assumptions were tested. A p-value of less than 0.05 was considered significant.

[2] = Plasma and spinal tissue pharmacokinetics by microdialysis after single-dose co-administered i.v. meropenem and vancomycin; conditions: free drug, single i.v. 1000 mg meropenem + 1000 mg vancomycin co-administered, mean (95%CI)
Excerpt: as §1, §2, §3, §4, §5

[3] = intervertebral disc, microdialysis, pigs, one disc catheter malfunctioned
[4] = paravertebral muscle, microdialysis, pigs n = 8
[5] = subcutaneous tissue, microdialysis, pigs n = 8
[6] = vertebral cancellous bone, microdialysis, pigs n = 8

**Q.** What does the source list for `C[C@@H](O)[C@H]1C(=O)N2C(C(=O)O)=C(S[C@@H]3CN[C@H](C(=O)N(C)C)C3)[C@H](C)[C@H]12` [Meropenem, meropenem]?
**A.** Mean T>MIC (min) ([1]; meropenem MIC 0.125 μg/mL (low), C3-C4 intervertebral disc, microdialysis, UHPLC-MS/MS, pigs, one disc catheter malfunctioned, single i.v. 1000 mg co-administered with vancomycin, mean): 366 (335; 396) min; Mean T>MIC (min) ([1]; meropenem MIC 0.125 μg/mL (low), C3 vertebral cancellous bone, microdialysis, UHPLC-MS/MS, pigs n = 8, single i.v. 1000 mg co-administered with vancomycin, mean): 244 (215; 272) min; Mean %T>MIC ([1]; meropenem MIC 0.125 μg/mL (low), intervertebral disc, microdialysis, percentage of dosing interval of 450 min, pigs, single i.v. 1000 mg): 81 (74; 88) %; Mean T>MIC (min) ([1]; meropenem MIC 0.125 μg/mL (low), paravertebral muscle, microdialysis, UHPLC-MS/MS, pigs n = 8, single i.v. 1000 mg co-administered with vancomycin, mean): 285 (256; 314) min; Mean %T>MIC ([1]; meropenem MIC 0.125 μg/mL (low), paravertebral muscle, microdialysis, percentage of dosing interval of 450 min, pigs n = 8, single i.v. 1000 mg): 63 (57; 70) %; Mean T>MIC ([1]; meropenem MIC 0.125 μg/mL (low), plasma, free drug, UHPLC, pigs n = 8, single i.v. 1000 mg over 10 min co-administered with vancomycin 1000 mg, linear interpolation, mean): 406 min; Mean %T>MIC ([1]; meropenem MIC 0.125 μg/mL (low), plasma, percentage of dosing interval of 450 min, pigs n = 8, single i.v. 1000 mg co-administered with vancomycin): 90%; Mean T>MIC (min) ([1]; meropenem MIC 0.125 μg/mL (low), subcutaneous tissue, microdialysis, UHPLC-MS/MS, pigs n = 8, single i.v. 1000 mg co-administered with vancomycin, mean): 334 (305; 363) min; Mean %T>MIC ([1]; meropenem MIC 0.125 μg/mL (low), subcutaneous tissue, microdialysis, percentage of dosing interval of 450 min, pigs n = 8, single i.v. 1000 mg): 74 (68; 81) %; Mean %T>MIC ([1]; meropenem MIC 0.125 μg/mL (low), vertebral cancellous bone, microdialysis, percentage of dosing interval of 450 min, pigs n = 8, single i.v. 1000 mg): 54 (48; 61) %; %T>MIC ([1]; meropenem low MIC target (0.125 µg/mL), all the investigated compartments, 8-h dosing interval, pigs, single i.v. 1000 mg): ≥ 54%; %T>MIC ([1]; pig, in vivo): 25–36%; Mean %T>MIC ([1]; pig, in vivo): 36 (33; 40) %; Mean T>MIC (min) ([1]; pig, in vivo): 163 (147; 180) min; %T>MIC ([1]; pig, in vivo, iv): ≤ 40%; Mean %T>MIC ([1]; pig, in vivo, iv): 40% and 26 (22; 30) % and 25 (22; 29) % and 35 (31; 39) %; Mean T>MIC ([1]; pig, in vivo, iv): 181 min; Mean T>MIC (min) ([1]; pig, in vivo, iv): 118 (101; 134) min and 114 (98; 131) min and 158 (141; 175) min; %T>MIC ([1]; pig, in vivo, iv, listed as meropenem): 25–90%

**Q.** Which results are given for `CN[C@H](CC(C)C)C(=O)N[C@H]1C(=O)N[C@@H](CC(N)=O)C(=O)N[C@H]2C(=O)N[C@H]3C(=O)N[C@H](C(=O)N[C@H](C(=O)O)c4cc(O)cc(O)c4-c4cc3ccc4O)[C@H](O)c3ccc(c(Cl)c3)Oc3cc2cc(c3O[C@@H]2O[C@H](CO)[C@@H](O)[C@H](O)[C@H]2O[C@H]2C[C@](C)(N)[C@H](O)[C@H](C)O2)Oc2ccc(cc2Cl)[C@H]1O` [Vancomycin, vancomycin]?
**A.** AUC0-8h [2, 3]: 877 (−325; 2079) min μg/mL; Cmax [2, 3]: 3 (−3; 10) μg/mL; AUC0-8h [2, 4]: 2538 (1379; 3698) min μg/mL; Cmax [2, 4]: 11 (5; 17) μg/mL; Cmax ([2]; plasma, pigs n = 8): 35 (29; 41) μg/mL; AUC0-8h [2, 5]: 3767 (2608; 4927) min μg/mL; Cmax [2, 5]: 17 (11; 23) μg/mL; AUC0-8h [2, 6]: 1698 (539; 2858) min μg/mL; Cmax [2, 6]: 6 (0.4; 12) μg/mL; Mean %T>MIC ([1]; vancomycin MIC 1 μg/mL (low), intervertebral disc, microdialysis, percentage of dosing interval of 450 min, pigs, single i.v. 1000 mg): 69%; Mean T>MIC ([1]; vancomycin MIC 1 μg/mL (low), intervertebral disc, microdialysis, pigs, one disc catheter malfunctioned, single i.v. 1000 mg co-administered with meropenem, mean): 311 min; Mean %T>MIC ([1]; vancomycin MIC 1 μg/mL (low), paravertebral muscle, microdialysis, percentage of dosing interval of 450 min, pigs n = 8, single i.v. 1000 mg): 96%; Mean T>MIC ([1]; vancomycin MIC 1 μg/mL (low), paravertebral muscle, microdialysis, pigs n = 8, single i.v. 1000 mg co-administered with meropenem, mean): 433 min; Mean T>MIC ([1]; vancomycin MIC 1 μg/mL (low), plasma, free drug, enzyme immunoassay, pigs n = 8, single i.v. 1000 mg over 100 min co-administered with meropenem 1000 mg, linear interpolation, mean): 449 min; Mean %T>MIC ([1]; vancomycin MIC 1 μg/mL (low), plasma, percentage of dosing interval of 450 min, pigs n = 8, single i.v. 1000 mg): 100%; Mean T>MIC ([1]; vancomycin MIC 1 μg/mL (low), subcutaneous tissue, microdialysis, UHPLC-MS/MS, pigs n = 8, single i.v. 1000 mg co-administered with meropenem, mean): 435 min; Mean %T>MIC ([1]; vancomycin MIC 1 μg/mL (low), subcutaneous tissue, microdialysis, percentage of dosing interval of 450 min, pigs n = 8, single i.v. 1000 mg): 97%; Mean %T>MIC ([1]; vancomycin MIC 1 μg/mL (low), vertebral cancellous bone, microdialysis, percentage of dosing interval of 450 min, pigs n = 8, single i.v. 1000 mg): 86%; Mean T>MIC ([1]; vancomycin MIC 1 μg/mL (low), vertebral cancellous bone, microdialysis, pigs n = 8, single i.v. 1000 mg co-administered with meropenem, mean): 388 min; Mean %T>MIC ([1]; vancomycin MIC 4 μg/mL (high), intervertebral disc, microdialysis, percentage of dosing interval of 450 min, pigs, single i.v. 1000 mg): 10%; Mean T>MIC ([1]; vancomycin MIC 4 μg/mL (high), intervertebral disc, microdialysis, pigs, one disc catheter malfunctioned, single i.v. 1000 mg co-administered with meropenem, mean): 45 min; Mean T>MIC ([1]; vancomycin MIC 4 μg/mL (high), paravertebral muscle, microdialysis, pigs n = 8, single i.v. 1000 mg co-administered with meropenem, mean): 306 min; Mean T>MIC ([1]; vancomycin MIC 4 μg/mL (high), plasma, free drug, pigs n = 8, single i.v. 1000 mg co-administered with meropenem, mean): 446 min; Mean %T>MIC ([1]; vancomycin MIC 4 μg/mL (high), plasma, percentage of dosing interval of 450 min, pigs n = 8, single i.v. 1000 mg): 99%; Mean %T>MIC ([1]; vancomycin MIC 4 μg/mL (high), subcutaneous tissue, microdialysis, percentage of dosing interval of 450 min, pigs n = 8, single i.v. 1000 mg): 81%; Mean T>MIC ([1]; vancomycin MIC 4 μg/mL (high), subcutaneous tissue, microdialysis, pigs n = 8, single i.v. 1000 mg co-administered with meropenem, mean): 365 min; Mean %T>MIC ([1]; vancomycin MIC 4 μg/mL (high), vertebral cancellous bone, microdialysis, percentage of dosing interval of 450 min, pigs n = 8, single i.v. 1000 mg): 47%; Mean T>MIC ([1]; vancomycin MIC 4 μg/mL (high), vertebral cancellous bone, microdialysis, pigs n = 8, single i.v. 1000 mg co-administered with meropenem, mean): 214 min; %T>MIC ([1]; vancomycin high MIC target (4 µg/mL), all solid tissue compartments, 8-h dosing interval, pigs, single i.v. 1000 mg): ≤ 81%; %T>MIC ([1]; vancomycin low MIC target (1 µg/mL), all the investigated compartments, 8-h dosing interval, pigs, single i.v. 1000 mg): ≥ 69%; %T>MIC ([1]; vancomycin, range across all targeted tissues and plasma and both MIC targets (1 and 4 µg/mL), pigs, single i.v. 1000 mg): 10–100%
